Test results taken from ChEMBL document CHEMBL1201862, “PubChem BioAssay data set” (2004).
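48-hour exposure; five concentrations; linearly interpolated endpoints. GI50 = concentration required for 50% inhibition of growth.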 The source made the active and inactive calls. Rule as the data show it: active = GI50 up to about 1.1 µM and inactive = higher.

Columns and labels:
Test in all cases: NCI tumour cell line growth inhibition, 48 h
LOX IMVI = tested on: LOX IMVI
NCI-H522 = tested on: NCI-H522
PC-3 = tested on: PC-3
MDA-MB-231 = tested on: MDA-MB-231
HCC 2998 = tested on: HCC 2998
OVCAR-5 = tested on: OVCAR-5
UACC-62 = tested on: UACC-62
SK-MEL-28 = tested on: SK-MEL-28
SNB-75 = tested on: SNB-75
SW-620 = tested on: SW-620
NCI/ADR-RES = tested on: NCI/ADR-RES
NCI-H460 = tested on: NCI-H460
SK-OV-3 = tested on: SK-OV-3
SF-268 = tested on: SF-268
CAKI-1 = tested on: CAKI-1
K562 = tested on: K562
RXF 393 = tested on: RXF 393
ACHN = tested on: ACHN
IGROV-1 = tested on: IGROV-1

Compound | GI50 (LOX IMVI) | GI50 (NCI-H522) | GI50 (PC-3) | GI50 (MDA-MB-231) | GI50 (HCC 2998) | GI50 (OVCAR-5) | GI50 (UACC-62) | GI50 (SK-MEL-28) | GI50 (SNB-75) | GI50 (SW-620) | GI50 (NCI/ADR-RES) | GI50 (NCI-H460) | GI50 (SK-OV-3) | GI50 (SF-268) | GI50 (CAKI-1) | GI50 (K562) | GI50 (RXF 393) | GI50 (ACHN) | GI50 (IGROV-1)
O=[N+]([O-])c1oc2ccc3ccccc3c2c1CCO | 2.14 µM (inactive) | 1.63 µM (inactive) | 13.1 µM (inactive) | 11.1 µM (inactive) | 0.435 µM (active) | 7.23 µM (inactive) | 2.87 µM (inactive) | 1.38 µM (inactive) | 4.41 µM (inactive) | 4.08 µM (inactive) | 4.79 µM (inactive) | 0.0479 µM (active) | 1.05 µM (active) | 5.47 µM (inactive) | 2.25 µM (inactive) | 1.96 µM (inactive) | 1.58 µM (inactive) | 1.58 µM (inactive) | 1.32 µM (inactive)
CC1(C)N=C(N)N=C(N)N1c1cccc(Cl)c1 | 2.54 µM (inactive) | 5.87 µM (inactive) | > 100 µM (inactive) | 61.8 µM (inactive) | 14 µM (inactive) | 9.12 µM (inactive) | 2.88 µM (inactive) | > 100 µM (inactive) | 25.6 µM (inactive) | > 100 µM (inactive) | 0.681 µM (active) | 1.43 µM (inactive) | > 100 µM (inactive) | 1.14 µM (inactive) | > 100 µM (inactive) | 3.66 µM (inactive) | > 100 µM (inactive) | 5.21 µM (inactive) | 4.93 µM (inactive)
CCN(CC)c1nc(N(C)C)c2ccccc2n1 | 30.1 µM (inactive) | 18.5 µM (inactive) | 26.4 µM (inactive) | 72.4 µM (inactive) | 15.3 µM (inactive) | 25.5 µM (inactive) | 14.9 µM (inactive) | 31.8 µM (inactive) | 34.8 µM (inactive) | 32.1 µM (inactive) | 22.5 µM (inactive) | 25.4 µM (inactive) | 38.8 µM (inactive) | 52.2 µM (inactive) | 58.9 µM (inactive) | 10.6 µM (inactive) | 24 µM (inactive) | 27.9 µM (inactive) | 37 µM (inactive)
CCOC(=O)C1C2C1C1C(C(=O)OCC)C21 (stereo not given) | > 100 µM (inactive) | > 100 µM (inactive) | > 100 µM (inactive) | > 100 µM (inactive) | > 100 µM (inactive) | > 100 µM (inactive) | > 100 µM (inactive) | > 100 µM (inactive) | > 100 µM (inactive) | > 100 µM (inactive) | > 100 µM (inactive) | > 100 µM (inactive) | > 100 µM (inactive) | > 100 µM (inactive) | > 100 µM (inactive) | > 100 µM (inactive) | 81.8 µM (inactive) | > 100 µM (inactive) | > 100 µM (inactive)
Cc1cc(C)nc(NS(=O)(=O)c2ccc(NN=c3c4ccccc4n(C)c4ccccc34)cc2)n1 | 23.7 µM (inactive) | 13.8 µM (inactive) | 22 µM (inactive) | 21.3 µM (inactive) | 28.3 µM (inactive) | 26.9 µM (inactive) | 20.8 µM (inactive) | 37 µM (inactive) | 12.7 µM (inactive) | 26.1 µM (inactive) | 38.2 µM (inactive) | 29.6 µM (inactive) | 27.2 µM (inactive) | 25.6 µM (inactive) | 21.5 µM (inactive) | 16.7 µM (inactive) | 7.62 µM (inactive) | 21.6 µM (inactive) | 45.8 µM (inactive)
CCN(/C=C1/C(=O)C(c2ccccc2)N(c2ccccc2)C1=O)CC (stereo not given) | > 10 µM (inactive) | > 10 µM (inactive) | > 10 µM (inactive) | > 10 µM (inactive) | > 10 µM (inactive) | > 10 µM (inactive) | > 10 µM (inactive) | > 10 µM (inactive) | 6.44 µM (inactive) | > 10 µM (inactive) | > 10 µM (inactive) | > 10 µM (inactive) | > 10 µM (inactive) | > 10 µM (inactive) | > 10 µM (inactive) | > 10 µM (inactive) | > 10 µM (inactive) | > 10 µM (inactive) | > 10 µM (inactive)
Nc1cc(C2CCCc3c2[nH]c2ccccc32)ccc1O (stereo not given) | 16.4 µM (inactive) | 20.1 µM (inactive) | 38.5 µM (inactive) | 84.5 µM (inactive) | 64.7 µM (inactive) | 24.1 µM (inactive) | 10.8 µM (inactive) | > 100 µM (inactive) | 52 µM (inactive) | 23.6 µM (inactive) | 22 µM (inactive) | > 100 µM (inactive) | > 100 µM (inactive) | 45.9 µM (inactive) | 25.2 µM (inactive) | 6.56 µM (inactive) | 55.8 µM (inactive) | 18.5 µM (inactive) | 38.2 µM (inactive)
CC(C)=CCCC(C)CCOS(=O)C(F)(F)F (stereo not given) | 16.3 µM (inactive) | 1.71 µM (inactive) | 18 µM (inactive) | 16.6 µM (inactive) | 13.2 µM (inactive) | 11 µM (inactive) | 8.81 µM (inactive) | 11 µM (inactive) | 20.5 µM (inactive) | 3.29 µM (inactive) | 4.16 µM (inactive) | 16.1 µM (inactive) | 22.1 µM (inactive) | 17.7 µM (inactive) | 25.2 µM (inactive) | 3.78 µM (inactive) | 1.89 µM (inactive) | 11.4 µM (inactive) | 12.8 µM (inactive)
O=[N+]([O-])c1ccc2sc(/C=N/c3ccc(O)cc3)cc2c1 | 23.3 µM (inactive) | 27.7 µM (inactive) | 29.6 µM (inactive) | 17.8 µM (inactive) | 21.8 µM (inactive) | 62.2 µM (inactive) | 23.1 µM (inactive) | 36.1 µM (inactive) | 25.8 µM (inactive) | 17 µM (inactive) | 28.8 µM (inactive) | 46 µM (inactive) | 84.7 µM (inactive) | 29.5 µM (inactive) | 20.6 µM (inactive) | 18.1 µM (inactive) | 21.5 µM (inactive) | 32.2 µM (inactive) | 31.4 µM (inactive)
CC(=O)NC1C(OCc2ccccc2)OC(CO)C(O)C1OC(C)C(=O)NC(C(=O)NC(CCC(=O)NCCCCNc1c2ccccc2nc2cccc([N+](=O)[O-])c12)C(N)=O)C(C)C (stereo not given) | 1.67 µM (inactive) | 0.186 µM (active) | 2.67 µM (inactive) | 2.71 µM (inactive) | 1.01 µM (active) | 2.71 µM (inactive) | 2.09 µM (inactive) | 2.67 µM (inactive) | 2.7 µM (inactive) | 0.993 µM (active) | 49.2 µM (inactive) | 0.887 µM (active) | 8.73 µM (inactive) | 2.99 µM (inactive) | 3.37 µM (inactive) | 0.458 µM (active) | 1.56 µM (inactive) | 1.97 µM (inactive) | 2.05 µM (inactive)
O=c1ccs[nH]1 | 7.26 µM (inactive) | 0.42 µM (active) | 12.9 µM (inactive) | 14.7 µM (inactive) | 3.97 µM (inactive) | 16.3 µM (inactive) | 16.4 µM (inactive) | 25.1 µM (inactive) | 16.9 µM (inactive) | 4.06 µM (inactive) | 17.7 µM (inactive) | 9.08 µM (inactive) | 26.3 µM (inactive) | 14.2 µM (inactive) | 9.46 µM (inactive) | 7.82 µM (inactive) | 7.96 µM (inactive) | 7.05 µM (inactive) | 24.2 µM (inactive)
O=C(NNC(=O)c1ccccc1S)c1ccccc1S [BIS(THIOSALICYL)HYDRAZIDE] | 9.84 µM (inactive) | 0.0154 µM (active) | 32.1 µM (inactive) | > 25 µM (inactive) | 5.96 µM (inactive) | 12.4 µM (inactive) | 9.27 µM (inactive) | > 25 µM (inactive) | 18 µM (inactive) | 11.6 µM (inactive) | 11.3 µM (inactive) | 9.29 µM (inactive) | > 25 µM (inactive) | 11.2 µM (inactive) | 6.93 µM (inactive) | 14.6 µM (inactive) | 22.6 µM (inactive) | 10.8 µM (inactive) | 7.29 µM (inactive)
CCOC(=O)CC(=O)Nc1cccc2sc3ncccc3c(=O)c12 | 19 µM (inactive) | 45.4 µM (inactive) | 5.81 µM (inactive) | 60.8 µM (inactive) | 25.9 µM (inactive) | 20.3 µM (inactive) | 31.7 µM (inactive) | 47.8 µM (inactive) | 12.9 µM (inactive) | > 100 µM (inactive) | 36.8 µM (inactive) | 19.5 µM (inactive) | 22.4 µM (inactive) | 36.2 µM (inactive) | 27.9 µM (inactive) | 20.6 µM (inactive) | 3.09 µM (inactive) | 33.3 µM (inactive) | > 10 µM (inactive)
NC(=O)c1cc2cc(Cl)cc(Cl)c2o/c1=N\c1ccc(F)cc1 | 27.6 µM (inactive) | 17.7 µM (inactive) | 19.1 µM (inactive) | 17.5 µM (inactive) | 21.1 µM (inactive) | 19.6 µM (inactive) | 23.3 µM (inactive) | 21.9 µM (inactive) | 14.8 µM (inactive) | 30.3 µM (inactive) | 16 µM (inactive) | 17.1 µM (inactive) | 22.5 µM (inactive) | 32.4 µM (inactive) | 18.1 µM (inactive) | 7.11 µM (inactive) | 16.8 µM (inactive) | 19.5 µM (inactive) | 26.4 µM (inactive)
COc1ccc(C(NS(=O)(=O)c2ccc(C)cc2)c2c(C(CBr)OC)c3ccccc3n2S(=O)(=O)c2ccccc2)cc1OC (stereo not given) | > 100 µM (inactive) | > 100 µM (inactive) | > 100 µM (inactive) | 52.8 µM (inactive) | > 100 µM (inactive) | > 100 µM (inactive) | > 100 µM (inactive) | > 100 µM (inactive) | 34.7 µM (inactive) | > 100 µM (inactive) | > 100 µM (inactive) | > 100 µM (inactive) | > 100 µM (inactive) | > 100 µM (inactive) | > 100 µM (inactive) | > 100 µM (inactive) | > 100 µM (inactive) | > 100 µM (inactive) | > 100 µM (inactive)
